Measured values reported in patent US8796289B2 (AbbVie Inc., priority 2011, dated 2014).
Read-outs that look alike come from different tables or passages of the source.

Molecular target: GST-tagged-Wee1 kinase (Homo sapiens, UniProt P30291)
Test: Wee1 time-resolved fluorescence equilibrium binding assay (displacement of Oregon Green-labeled ATP-competitive kinase probe)
Protocol: Wee1 kinase was assayed using a time-resolved fluorescence equilibrium binding assay monitoring displacement of a rapidly reversible Oregon Green-labeled ATP-competitive kinase probe (N-(2-(2-(2-(4-(4-(5-chloro-4-(2-(1-hydroxycyclobutyl)thiazol-5-yl)-1H-pyrrolo[2,3-b]pyridin-2-yl)phenyl)piperazin-1-yl)ethoxy)ethoxy)ethyl)-2′,7′-difluoro-3′,6′-dihydroxy-3-oxo-3H-spiro[isobenzofuran-1,9′-xanthene]-5-carboxamide) by competitive Wee1 inhibitors.

Sequence of GST-tagged-Wee1 kinase (P30291 whole entry): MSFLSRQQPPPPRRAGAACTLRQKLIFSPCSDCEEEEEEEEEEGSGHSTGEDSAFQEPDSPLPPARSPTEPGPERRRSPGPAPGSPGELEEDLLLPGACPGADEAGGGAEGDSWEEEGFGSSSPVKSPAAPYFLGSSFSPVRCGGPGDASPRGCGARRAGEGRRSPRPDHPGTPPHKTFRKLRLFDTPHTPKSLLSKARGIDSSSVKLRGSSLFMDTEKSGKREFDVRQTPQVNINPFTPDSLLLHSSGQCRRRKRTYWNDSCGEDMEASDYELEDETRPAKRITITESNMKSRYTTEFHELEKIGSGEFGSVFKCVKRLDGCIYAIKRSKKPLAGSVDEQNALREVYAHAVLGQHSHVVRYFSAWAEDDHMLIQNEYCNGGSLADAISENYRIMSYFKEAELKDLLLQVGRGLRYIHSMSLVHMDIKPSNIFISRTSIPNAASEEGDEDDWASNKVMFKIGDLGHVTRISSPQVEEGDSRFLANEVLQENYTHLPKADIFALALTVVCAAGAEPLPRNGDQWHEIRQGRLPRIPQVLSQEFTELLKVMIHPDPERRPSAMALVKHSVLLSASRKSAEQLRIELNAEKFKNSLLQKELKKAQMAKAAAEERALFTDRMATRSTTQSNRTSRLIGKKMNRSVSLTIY

CN1CCN(c2ccc(Nc3ncc4c(=O)n(-c5ncccc5Cl)nc(-c5cn(C)cn5)c4n3)cc2)CC1 [Example 343, 6-(3-chloropyridin-2-yl)-8-(1-methyl-1H-imidazol-4-yl)-2-{[4-(4-methylpiperazin-1-yl)phenyl]amino}pyrimido[4,5-d]pyridazin-5(6H)-one]
Ki: 6.9 nM

O=c1c2cnc(Nc3ccc(N4CCNCC4)cc3)nc2c(-c2nccs2)nn1-c1c(Cl)cccc1Cl [Example 344, 6-(2,6-dichlorophenyl)-2-{[4-(piperazin-1-yl)phenyl]amino}-8-(1,3-thiazol-2-yl)pyrimido[4,5-d]pyridazin-5(6H)-one]
Ki: 0.25 nM

O=c1c2cnc(Nc3ccc4c(c3)CNCC43CC3)nc2c(-c2nccs2)nn1-c1c(Cl)cccc1Cl [Example 345, 6-(2,6-dichlorophenyl)-2-(2′,3′-dihydro-1′H-spiro[cyclopropane-1,4′-isoquinolin]-7′-ylamino)-8-(1,3-thiazol-2-yl)pyrimido[4,5-d]pyridazin-5(6H)-one]
Ki: 0.34 nM

O=c1c2cnc(Nc3ccc4c(c3)CNCC4)nc2c(-c2nccs2)nn1-c1c(Cl)cccc1Cl [Example 346, 6-(2,6-dichlorophenyl)-2-(1,2,3,4-tetrahydroisoquinolin-7-ylamino)-8-(1,3-thiazol-2-yl)pyrimido[4,5-d]pyridazin-5(6H)-one]
Ki: 0.21 nM

O=c1c2cnc(Nc3ccc(N4CCNCC4)cc3)nc2c(-c2nccs2)nn1-c1ncccc1Cl [Example 347, 6-(3-chloropyridin-2-yl)-2-{[4-(piperazin-1-yl)phenyl]amino}-8-(1,3-thiazol-2-yl)pyrimido[4,5-d]pyridazin-5(6H)-one]
Ki: 6.5 nM

CN1CCN(c2ccc(Nc3ncc4c(=O)n(-c5ncccc5Cl)nc(-c5ccccn5)c4n3)cc2)CC1 [Example 348, 6-(3-chloropyridin-2-yl)-2-{[4-(4-methylpiperazin-1-yl)phenyl]amino}-8-(pyridin-2-yl)pyrimido[4,5-d]pyridazin-5(6H)-one]
Ki: 1.8 nM

Cc1nn(-c2ncccc2Cl)c(=O)c2cnc(Nc3ccc4c(c3)CNCC43CC3)nc12 [Example 349, 6-(3-chloropyridin-2-yl)-2-(2′,3′-dihydro-1′H-spiro[cyclopropane-1,4′-isoquinolin]-7′-ylamino)-8-methylpyrimido[4,5-d]pyridazin-5(6H)-one]
Ki: 0.5 nM

Cn1cnc(-c2nn(-c3ncccc3Cl)c(=O)c3cnc(Nc4ccc(N5CCNCC5)cc4)nc23)c1 [Example 350, 6-(3-chloropyridin-2-yl)-8-(1-methyl-1H-imidazol-4-yl)-2-{[4-(piperazin-1-yl)phenyl]amino}pyrimido[4,5-d]pyridazin-5(6H)-one]
Ki: 1.8 nM

Cc1nn(-c2ncccc2Cl)c(=O)c2cnc(Nc3ccc4c(c3)CN(C)CC43CC3)nc12 [Example 351, 6-(3-chloropyridin-2-yl)-8-methyl-2-[(2′-methyl-2′,3′-dihydro-1′H-spiro[cyclopropane-1,4′-isoquinolin]-7′-yl)amino]pyrimido[4,5-d]pyridazin-5(6H)-one]
Ki: 1.1 nM

Cn1cnc(-c2nn(-c3ncccc3Cl)c(=O)c3cnc(Nc4ccc5c(c4)CNCC54CC4)nc23)c1 [Example 352, 6-(3-chloropyridin-2-yl)-2-(2′,3′-dihydro-1′H-spiro[cyclopropane-1,4′-isoquinolin]-7′-ylamino)-8-(1-methyl-1H-imidazol-4-yl)pyrimido[4,5-d]pyridazin-5(6H)-one]
Ki: 12 nM

Cn1cnc(-c2nn(-c3ncccc3Cl)c(=O)c3cnc(Nc4ccc5c(c4)CNCC5)nc23)c1 [Example 353, 6-(3-chloropyridin-2-yl)-8-(1-methyl-1H-imidazol-4-yl)-2-(1,2,3,4-tetrahydroisoquinolin-7-ylamino)pyrimido[4,5-d]pyridazin-5(6H)-one]
Ki: 16 nM

CN1CCN(c2ccc(Nc3ncc4c(=O)n(-c5c(Cl)cccc5Cl)nc(-c5nccn5C)c4n3)cc2)CC1 [Example 354, 6-(2,6-dichlorophenyl)-8-(1-methyl-1H-imidazol-2-yl)-2-{[4-(4-methylpiperazin-1-yl)phenyl]amino}pyrimido[4,5-d]pyridazin-5(6H)-one]
Ki: 740 nM

Cn1ccnc1-c1nn(-c2c(Cl)cccc2Cl)c(=O)c2cnc(Nc3ccc(N4CCNCC4)cc3)nc12 [Example 355, 6-(2,6-dichlorophenyl)-8-(1-methyl-1H-imidazol-2-yl)-2-{[4-(piperazin-1-yl)phenyl]amino}pyrimido[4,5-d]pyridazin-5(6H)-one]
Ki: 2.4 nM

Cn1ccnc1-c1nn(-c2c(Cl)cccc2Cl)c(=O)c2cnc(Nc3ccc4c(c3)CNCC43CC3)nc12 [Example 356, 6-(2,6-dichlorophenyl)-2-(2′,3′-dihydro-1′H-spiro[cyclopropane-1,4′-isoquinolin]-7′-ylamino)-8-(1-methyl-1H-imidazol-2-yl)pyrimido[4,5-d]pyridazin-5(6H)-one]
Ki: 1 nM

CN1Cc2cc(Nc3ncc4c(=O)n(-c5c(Cl)cccc5Cl)nc(-c5nccn5C)c4n3)ccc2C2(CC2)C1 [Example 357, 6-(2,6-dichlorophenyl)-2-[(2′-methyl-2′,3′-dihydro-1′H-spiro[cyclopropane-1,4′-isoquinolin]-7′-yl)amino]-8-(1-methyl-1H-imidazol-2-yl)pyrimido[4,5-d]pyridazin-5(6H)-one]
Ki: 0.87 nM

CN1CCN(c2ccc(Nc3ncc4c(=O)n(-c5c(Cl)cncc5Cl)nc(-c5ccncc5)c4n3)cc2)CC1 [Example 358, 6-(3,5-dichloropyridin-4-yl)-2-{[4-(4-methylpiperazin-1-yl)phenyl]amino}-8-(pyridin-4-yl)pyrimido[4,5-d]pyridazin-5(6H)-one]
Ki: 0.47 nM

CN1Cc2cc(Nc3ncc4c(=O)n(-c5c(Cl)cncc5Cl)nc(-c5cn(C)cn5)c4n3)ccc2C2(CC2)C1 [Example 359, 6-(3,5-dichloropyridin-4-yl)-2-[(2′-methyl-2′,3′-dihydro-1′H-spiro[cyclopropane-1,4′-isoquinolin]-7′-yl)amino]-8-(1-methyl-1H-imidazol-4-yl)pyrimido[4,5-d]pyridazin-5(6H)-one]
Ki: 5 nM

CN1CCN(c2ccc(Nc3ncc4c(=O)n(-c5c(Cl)cncc5Cl)nc(-c5cncs5)c4n3)cc2)CC1 [Example 360, 6-(3,5-dichloropyridin-4-yl)-2-{[4-(4-methylpiperazin-1-yl)phenyl]amino}-8-(1,3-thiazol-5-yl)pyrimido[4,5-d]pyridazin-5(6H)-one]
Ki: 2.4 nM

CN1CCN(c2ccc(Nc3ncc4c(=O)n(-c5c(Cl)cncc5Cl)nc(-c5cn(C)cn5)c4n3)cc2)CC1 [Example 361, 6-(3,5-dichloropyridin-4-yl)-8-(1-methyl-1H-imidazol-4-yl)-2-{[4-(4-methylpiperazin-1-yl)phenyl]amino}pyrimido[4,5-d]pyridazin-5(6H)-one]
Ki: 4.4 nM

CN1CCN(c2ccc(Nc3ncc4c(=O)n(-c5c(Cl)cncc5Cl)nc(-c5ccccn5)c4n3)cc2)CC1 [Example 362, 6-(3,5-dichloropyridin-4-yl)-2-{[4-(4-methylpiperazin-1-yl)phenyl]amino}-8-(pyridin-2-yl)pyrimido[4,5-d]pyridazin-5(6H)-one]
Ki: 1.8 nM

COc1cc(N2CCC(N3CCN(C)CC3)CC2)ccc1Nc1ncc2c(=O)n(-c3c(Cl)cccc3Cl)nc(C)c2n1 [Example 363, 6-(2,6-dichlorophenyl)-2-({2-methoxy-4-[4-(4-methylpiperazin-1-yl)piperidin-1-yl]phenyl}amino)-8-methylpyrimido[4,5-d]pyridazin-5(6H)-one]
Ki: 40 nM

Cc1nn(-c2c(Cl)cccc2Cl)c(=O)c2cnc(Nc3ccc4c(c3)CN(C)CC4(C)C)nc12 [Example 364, 6-(2,6-dichlorophenyl)-8-methyl-2-[(2,4,4-trimethyl-1,2,3,4-tetrahydroisoquinolin-7-yl)amino]pyrimido[4,5-d]pyridazin-5(6H)-one]
Ki: 0.61 nM

Cc1nn(-c2ncccc2Cl)c(=O)c2cnc(Nc3ccc4c(c3)CN(C)CC4(C)C)nc12 [Example 365, 6-(3-chloropyridin-2-yl)-8-methyl-2-[(2,4,4-trimethyl-1,2,3,4-tetrahydroisoquinolin-7-yl)amino]pyrimido[4,5-d]pyridazin-5(6H)-one]
Ki: 2.9 nM

Cc1nn(-c2c(F)cccc2Cl)c(=O)c2cnc(Nc3ccc4c(c3)CC(N(C)C)C4)nc12 (centres unmarked) [Example 366, 6-(2-chloro-6-fluorophenyl)-2-{[2-(dimethylamino)-2,3-dihydro-1H-inden-5-yl]amino}-8-methylpyrimido[4,5-d]pyridazin-5(6H)-one]
Ki: 0.53 nM

Cc1nn(-c2ncccc2Cl)c(=O)c2cnc(Nc3ccc4c(c3)CC(N(C)C)C4)nc12 (centres unmarked) [Example 367, 6-(3-chloropyridin-2-yl)-2-{[2-(dimethylamino)-2,3-dihydro-1H-inden-5-yl]amino}-8-methylpyrimido[4,5-d]pyridazin-5(6H)-one]
Ki: 3.7 nM

Cc1cc(Nc2ncc3c(=O)n(-c4c(F)cccc4Cl)nc(C)c3n2)ccc1N1CCCN(C)CC1 [Example 368, 6-(2-chloro-6-fluorophenyl)-8-methyl-2-(3-methyl-4-(4-methyl-1,4-diazepan-1-yl)phenylamino)pyrimido[4,5-d]pyridazin-5(6H)-one]
Ki: 0.54 nM

Cc1cc(Nc2ncc3c(=O)n(-c4ncccc4Cl)nc(C)c3n2)ccc1N1CCCN(C)CC1 [Example 369, 6-(3-chloropyridin-2-yl)-8-methyl-2-(3-methyl-4-(4-methyl-1,4-diazepan-1-yl)phenylamino)pyridazino[4,5-d]pyrimidin-5(6H)-one]
Ki: 1.8 nM

Cc1nn(-c2c(Cl)cccc2Cl)c(=O)c2cnc(Nc3ccc4c(c3)CN(CC(F)(F)F)CC4(C)C)nc12 [Example 370, 6-(2,6-dichlorophenyl)-2-{[4,4-dimethyl-2-(2,2,2-trifluoroethyl)-1,2,3,4-tetrahydroisoquinolin-7-yl]amino}-8-methylpyrimido[4,5-d]pyridazin-5(6H)-one]
Ki: 35 nM

Cc1nn(-c2c(Cl)cccc2Cl)c(=O)c2cnc(Nc3ccc4c(c3)CNCC4)nc12 [Example 371]
Ki (read-out: Wee-1 inhibition Ki): 0.2 nM
